According to patent publication US12357624B2, “Low dose pridopidine for Parkinson's Disease and other diseases associated with parkinsonism” (PRILENIA NEUROTHERAPEUTICS LTD., priority 2019, dated 2025):
Where two headings read alike, the source gives them in different places.

Legend:
6-OHDA-lesioned mice = test system: 6-OHDA-lesioned mice
Experimental: The study was performed in male C57B16J mice weighing approx. 25 g and having an age of 8 to 9 weeks at the beginning of the experiments. A total of 65 wild-type mice and 52 S1R knockout (KO) mice were used. S1R knockout mice and wild-type littermates (both genders) were bred on a C57BL6J background. Our S1R KO line is derived from the well-characterized Sigmar1^Gt(OST422756)Lex mouse strain distributed by the Mutant Mouse Resource Regional Centre (MMRRC) The mice were housed under a 12-h light/dark cycle with free access to food and water.
Lesions were performed according to previously described procedures [Francardo V, Bez F, Wieloch T, Nissbrandt H, Ruscher K, Cenci 33. MA. […] Brain: A Journal of Neurology. […] 6-OHDA-HCl (Sigma-Aldrich AB, Stockholm, Sweden) was freshly dissolved in 0.02% ascorbate-saline at the concentration of 3.2 mg free base per milliliter. […] The solution was injected via a glass capillary (tip diameter−50 (1 m) at the rate of 0.5 (1 L/min, and the capillary was left in place for 2 mi after each injection.
The first injection was given immediately upon completion of lesion surgery. […] Forelimb use asymmetry during vertical exploration provides a validated measure of forelimb akinesia in hemiparkinsonian rodents [Lundblad M, Andersson M, Winkler C, Kirik D, Wierup N, Cenci M A. Pharmacological validation of behavioural measures of akinesia and dyskinesia in a rat model of Parkinson's disease. The European Journal of Neuroscience. […] The test was executed as in [Francardo V, Bez F, Wieloch T, Nissbrandt H, Ruscher K, Cenci 33. MA. […] The number of supporting wall contacts performed independently by the paw contralateral to the lesion was expressed as a percentage of all supporting wall contacts in each session.

[1] = test system: TH-positive neurons in the substantia nigra compacta; settings: 35 days
Experimental: Mice allocated to immunohistochemistry were perfusion-fixed on the day after the last rug/saline administration (interval of approx. 20 h from the last injection). Animals were deeply anesthetized with sodium pentobarbital (240 mg/kg, i.p.) and transcardially perfused with 0.9% saline solution, followed by ice-cold buffered 4% paraformaldehyde (pH 7.4). […] Coronal sections of 30 (1 m thickness were cut on a sliding microtome and stored at −20° C. in a nonfreezing solution (30% ethylene glycol and 30% glycerol in 0.1 M phosphate buffer).
Immunohistochemistry and quantitative analyses were performed according to established protocols [Francardo V, Bez F, Wieloch T, Nissbrandt H, Ruscher K, Cenci 33. MA. Neurobiology of Disease. […] Experimental Eye Research. […] (rabbit anti-TH antiserum from Pel-Freez, Rogers, AR, 1:1000) and Cluster of Differentiation 68 (CD68) (rat anti-CD68 antiserum from AbD Serotec, Kidlington, Oxfordshire, UK; 1:1000). Quantitative analyses were performed by an experimentally blinded investigator using the following methods.
The number of TH-positive cell bodies in the substantia nigra compacta (SNc) was determined using unbiased stereology according to the optical fractionator method as in [West M J. Stereological methods for estimating the total number of neurons and synapses: issues of precision and bias. Trends in Neurosciences.
Analysis was performed using a Nikon 80i microscope with an x-y motorized stage controlled by the NewCAST software (Visiopharm). The sampling fraction was chosen so as to count at least 100 neurons per side per animal following an established protocol [Francardo V, Recchia A, Popovic N, Andersson D, Nissbrandt H, Cenci M A. Impact of the lesion procedure on the profiles of motor impairment and molecular responsiveness to L-DOPA in the 6-hydroxydopamine mouse model of Parkinson's disease. Neurobiology of Disease. […] Trends in Neurosciences.

SOD1G93A motor neurons = settings: 0.1 and 1 μM; cited from earlier work
S1R = S1R (Mus musculus, UniProt O55242); settings: both doses of 0.3 and 1 mg/kg; judged plausible from Ki and free brain concentration
WT and YAC128 neurons = settings: 24 h treatment; after oligomycin plus FCCP
Experimental: Mitochondrial function was assayed by measuring the levels of the fluorescent probe MitoPY1, which detects H2O2 levels in mitochondria. Mitochondrial membrane potential (MMP) was assessed in cortical and striatal neurons using the positively changed fluorescent probe TMRM (tetramethylrhodamine methyl ester). […] Under these conditions, retention of TMRM by mitochondria was studied to estimate changes in Dym. […] TMRM release was calculated based in the differences in fluorescence before and after addition of oligomycin/FCCP.

[2] = test system: GDNF, BDNF, phosphorylated ERK1/2; settings: 0.3 mg/kg, 35 days
Experimental: Animals prepared for Western blot analysis were euthanized by cervical dislocation; their brains were rapidly extracted and frozen on crushed dry ice. Tissue samples were dissected out in a cryostat chamber (−14° C.). […] The striatum was dissected out using a scalpel blade. Tissue samples from the substantia nigra were taken with a tissue puncher of 2 mm diameter spanning across rostrocaudal levels −2.70 to −3.80 relative to the bregma. The samples were kept frozen until further analysis.
Tissue homogenates were prepared in cell lysis buffer (20 mmol/LTris (pH 7.5), 150 mmol/L NaCl, 1 mmol/L EDTA, 1 mmol/L EGTA, 1% Triton X-100, 2.5 mmol/L sodium pyrophosphate, 1 mmol/L |3-glycerolphosphate, 1 mmol/L Na3VO4, […] leupeptin, and 1 mmol/L phenylmethylsulfonyl fluoride). Twenty micrograms of protein was separated on a 10% SDS polyacrylamide gel. […] Thereafter, membranes were incubated overnight at 4° C. using one of the following primary antibodies: rabbit polyclonal anti-GDNF (Santa Cruz Biotechnology, Inc., Santa Cruz, CA; 1:1000) and monoclonal anti-BDNF (Santa Cruz Biotechnology, Inc., 1:1000); rabbit polyclonal antibodies against Thr202/Tyr204-phosphorylated ERK1/2 (p44/42-MAPK; Cell Signaling Technology Inc., Danvers, MA, 1:2000). Following appropriate washing steps, membranes were incubated with HRP-linked secondary antibodies (Sigma-Aldrich, Deisenhofen, Germany; 1:15000). Signals were visualized using a chemiluminescence kit (Merck Millipore, Watford, Hertfordshire, UK), and images were acquired using a CCD camera (LAS1000 system, Fuji Films, Tokyo, Japan). Optical density was measured on specific immunoreactive bands using NIH Image J software. Membranes were then stripped and reprobed with |-actin antibodies (Sigma-Aldrich, 1:50,000). The optical density of specific bands was then normalized to the |-actin band in the same lane.

Chain of S1R (O55242 whole entry): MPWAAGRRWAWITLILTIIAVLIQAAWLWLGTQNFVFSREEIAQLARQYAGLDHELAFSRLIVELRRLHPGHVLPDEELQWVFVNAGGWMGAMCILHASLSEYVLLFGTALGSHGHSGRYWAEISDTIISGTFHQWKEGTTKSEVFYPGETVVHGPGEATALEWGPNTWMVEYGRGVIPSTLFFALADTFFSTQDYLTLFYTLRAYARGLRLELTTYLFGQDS

CCCN1CCC(c2cccc(S(C)(=O)=O)c2)CC1 [pridopidine, 4-[3-(methylsulfonyl)phenyl]-1-propyl-piperidine]
cylinder test, contralateral forelimb use (6-OHDA-lesioned mice; 0.3 mg/kg s.c. daily): reaching levels of performance comparable with sham-control values on weeks 4 and 5 | cylinder test, contralateral forelimb use (6-OHDA-lesioned mice; 1.0 mg/kg s.c. daily): did not restore contralateral forelimb use in the cylinder test | cylinder test, contralateral forelimb use, difference vs sham (6-OHDA-lesioned mice; 1.0 mg/kg s.c. daily, week 5): ~33% | cylinder test, contralateral forelimb use, difference vs sham (6-OHDA-lesioned mice; week 1, pridopidine-treated mice (0.3 or 1.0 mg/kg)): ~40% | increase in TH-positive neurons relative to saline treatment ([1]; 0.3 mg/kg s.c. daily): ~55% | number of TH-positive neurons, SNc ipsilateral to the lesion ([1]; 0.3 mg/kg s.c. daily): 3034 cells | number of TH-positive neurons, SNc ipsilateral to the lesion ([1]; 1.0 mg/kg s.c. daily): ~1901 cells | protection of dopaminergic cell bodies in SNc ([1]; 1.0 mg/kg s.c. daily, vs saline): did not, however, confer significant protection of dopaminergic cell bodies in SNc | BDNF axonal transport velocity (SOD1G93A motor neurons): significantly accelerates the velocity | occupancy of the S1R at Cmax (S1R): 100% | mitochondrial membrane potential (ΔΨm) (WT and YAC128 neurons): increases mitochondrial membrane potential | striatal BDNF level vs saline ([2]; striatum): +80.8% | striatal GDNF level vs saline ([2]; striatum): +37.6% | striatal phosphorylated ERK1/2 vs saline ([2]; striatum): +71% | BDNF level in the SN vs saline ([2]; substantia nigra): +88.5% | GDNF level in the SN vs saline ([2]; substantia nigra): only BDNF levels showed a significant increase | nigral phosphorylated ERK1/2 vs saline ([2]; substantia nigra): reached significance only in the striatum
